Measured values taken from patent US8530497B2, “Crystalline salts of a potent HCV inhibitor” (Boehringer Ingelheim International GmbH, priority 2010, dated 2013).

How the values were obtained:
[1] = Dynamic Vapor Sorption (DVS) moisture gain; assay type: physicochemical; settings: through 85% RH at 25° C.; for hygroscopic properties (DVS): conditions used in the analysis
Protocol: 4. Dynamic Vapor Sorption Dynamic water sorption analyses were performed using Surface Measurement Systems DVS or DVS-HT, or VTI SGA-100 instruments. Sample sizes ranged from 4 mg to 13 mg. Three cycles of water sorption/desorption were run at 25° C. with change of relative humidity from 5-10% increments from 5% to 95%. The criteria for the step were weight change less than or equal to 0.002% or maximum time of 3 hours.

[2] = Intrinsic dissolution rate (Van Kel VK7000 dissolution tester, Wood's die); assay type: physicochemical; settings: for Dissolution Rate: pH 6.8 (20 mM sodium phosphate), 37° C., 100 rpm
Protocol: 6. Dissolution Studies Intrinsic dissolution rates were evaluated using Van Kel VK7000 dissolution tester and 400 mL dissolution bath with a rotation rate of 100 rpm at 37° C. Samples were prepared using approximately 50 mg of API in a 6 mm diameter Wood's die with compression force of 3 kN and 15 seconds dwell time by Carver press. The test was performed in 400 mL of pH 6.8 (20 mM sodium phosphate). Samples were collected at 2, 5, 10, 15, 20, 25, and 30 minutes, and the collected samples were unfiltered or filtered using […] PDVF filter. The concentrations of the drug were determined by HPLC using isocratic Method with fluorescence detection.

Row | Compound | moisture gain by Dynamic Vapor Sorption [1] [%] | hygroscopic properties (DVS) [1] | dissolution rate compared with the sodium salt ([2]; pH 6.8) | Dissolution Rate [2] [µg/min/mL] | dissolution rate relative to the sodium salt or HEA ([2]; pH 6.8) [fold]
1 | C=C[C@@H]1C[C@]1(NC(=O)[C@@H]1C[C@@H](Oc2cc(-c3csc(NC(=O)C(C)C)n3)nc3c(Br)c(OC)ccc23)CN1C(=O)[C@@H](NC(=O)OC1CCCC1)C(C)(C)C)C(=O)O [HEA] | < 2.5 | non-hygroscopic | comparable to the sodium salt | 1.1 | –
2 | C=C[C@@H]1C[C@]1(NC(=O)[C@@H]1C[C@@H](Oc2cc(-c3csc(NC(=O)C(C)C)n3)nc3c(Br)c(OC)ccc23)CN1C(=O)[C@@H](NC(=O)OC1CCCC1)C(C)(C)C)C(=O)O [NA] | – | – | – | 1.3 | –
3 | C=C[C@@H]1C[C@]1(NC(=O)[C@@H]1C[C@@H](Oc2cc(-c3csc(NC(=O)C(C)C)n3)nc3c(Br)c(OC)ccc23)CN1C(=O)[C@@H](NC(=O)OC1CCCC1)C(C)(C)C)C(=O)O [TH] | < 4 | non-hygroscopic or slightly hygroscopic | – | 64.4 | > 10
